For series [1], the system named is Mus musculus. Description: Antifibrotic activity in C57BL/6 mouse model of CCI4-induced liver fibrosis assessed as decrease in serum TBIL level at 0.1 to 1 mg/kg, po administered once daily for 4 weeks. It counts as functional, organism-based. Conditions: dose 0.1-1 mg/kg.
The target of series [2] is T1, G-protein coupled bile acid receptor 1 (Homo sapiens) (UniProt Q8TDU6).
T1 sequence (whole entry): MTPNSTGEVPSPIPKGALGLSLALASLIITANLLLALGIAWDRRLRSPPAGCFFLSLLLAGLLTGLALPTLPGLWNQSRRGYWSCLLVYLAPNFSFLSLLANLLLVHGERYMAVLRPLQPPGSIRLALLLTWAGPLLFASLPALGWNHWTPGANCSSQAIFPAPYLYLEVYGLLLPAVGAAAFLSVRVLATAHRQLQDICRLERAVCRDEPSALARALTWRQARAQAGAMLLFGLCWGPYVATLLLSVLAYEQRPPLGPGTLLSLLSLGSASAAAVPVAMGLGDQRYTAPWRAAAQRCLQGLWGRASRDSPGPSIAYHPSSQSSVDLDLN
Description: Agonist activity in human GPBAR1 assessed as increase in intracellular cAMP level relative to control. It counts as functional, cell-based. Background: Changes in cAMP serve as a functional read-out for many G protein-coupled receptors.

Series [3] is described as follows: Half-life in male Sprague-Dawley rat at 1 mg/kg, iv measured by LC-MS/MS analysis. Conditions: in vivo. It counts as ADME, organism-based.
Series [4] can be described thus: Mutagenecity in Salmonella typhimurium TA102 measured by Ames test. It counts as toxicity. Conditions: salmonella enterica subsp. enterica serovar typhimurium. (The Ames test detects mutagens through reverse mutation in bacteria.)
Series [5] concerns Mus musculus. Description: Anti-NASH activity in western style diet-induced nonalcoholic steatohepatitis model of male C57BL/6 mouse assessed as reduction in liver TG level at 1 mg/kg, po administered once daily from week 32 to 44. It counts as functional, organism-based.
Another series addresses T2, Estrogen receptor (Homo sapiens, UniProt P03372).
T2 sequence (P03372 whole entry): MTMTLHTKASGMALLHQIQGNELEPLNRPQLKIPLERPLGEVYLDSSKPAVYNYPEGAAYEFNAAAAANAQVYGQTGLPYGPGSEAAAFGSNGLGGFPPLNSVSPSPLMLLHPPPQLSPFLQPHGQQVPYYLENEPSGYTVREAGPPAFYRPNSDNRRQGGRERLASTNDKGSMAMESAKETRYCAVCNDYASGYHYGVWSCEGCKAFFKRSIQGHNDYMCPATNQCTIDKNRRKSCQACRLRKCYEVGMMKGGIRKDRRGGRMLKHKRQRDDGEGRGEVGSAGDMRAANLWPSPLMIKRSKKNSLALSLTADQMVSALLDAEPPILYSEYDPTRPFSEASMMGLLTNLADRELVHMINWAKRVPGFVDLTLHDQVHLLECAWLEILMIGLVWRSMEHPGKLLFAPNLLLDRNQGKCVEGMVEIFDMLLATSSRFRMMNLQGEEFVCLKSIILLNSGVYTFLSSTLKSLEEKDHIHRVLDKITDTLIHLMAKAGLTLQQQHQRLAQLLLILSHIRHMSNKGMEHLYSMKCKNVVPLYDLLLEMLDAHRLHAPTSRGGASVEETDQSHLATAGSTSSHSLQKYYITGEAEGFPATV
Briefly: Agonist activity at estrogen receptor alpha (unknown origin).

Series [6] can be described thus: Ratio of drug level in skin to plasma in male Sprague-Dawley rat at 4.5 mg/kg, po administered as C14-lableled compound and measured at 0.25 to 6 hrs. It counts as ADME, organism-based. Conditions: other tissue, time 0.25-6 hrs.
A short description of series [7]: Drug recovery in brain of male Sprague-Dawley rat at 4.5 mg/kg, po administered as C14-lableled compound and assessed as radioactivity and measured at 6 hrs. It counts as ADME, organism-based. Conditions: in vivo, BLD = below limit of detection.
A short description of series [8]: Half-life in male Beagle dog at 1 mg/kg, iv measured by LC-MS/MS analysis. It counts as ADME, organism-based, Canis lupus familiaris. Conditions: in vivo.
Series [9] in a line: Mutagenecity in Salmonella typhimurium TA97A measured by Ames test. It counts as toxicity. Conditions: salmonella enterica subsp. enterica serovar typhimurium.
For series [10], the target named is T3, Bile acid receptor (Rattus norvegicus) (UniProt Q62735).
T3 sequence (whole entry): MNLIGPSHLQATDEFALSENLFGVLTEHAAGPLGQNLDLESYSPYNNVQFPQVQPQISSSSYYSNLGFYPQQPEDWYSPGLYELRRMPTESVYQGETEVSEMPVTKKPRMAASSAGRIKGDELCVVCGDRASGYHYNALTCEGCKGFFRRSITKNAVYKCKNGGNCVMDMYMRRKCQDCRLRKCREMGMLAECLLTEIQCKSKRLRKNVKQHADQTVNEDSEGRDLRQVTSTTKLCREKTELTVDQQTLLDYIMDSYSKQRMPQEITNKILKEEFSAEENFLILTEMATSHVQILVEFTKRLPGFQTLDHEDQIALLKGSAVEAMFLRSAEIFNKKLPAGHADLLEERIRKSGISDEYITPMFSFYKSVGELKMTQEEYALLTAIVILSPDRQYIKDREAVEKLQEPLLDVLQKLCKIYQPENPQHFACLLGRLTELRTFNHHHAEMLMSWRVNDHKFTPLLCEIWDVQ
Description: In vivo activation of FXR in male Sprague-Dawley rat assessed as fold increase in liver BSEP level at 5 mg/kg, po administered as single dose measured at 1 hr by RT-qPCR assay. It counts as functional, organism-based. A general note: Quantitative PCR measures a nucleic acid by following its amplification.

The nature of series [11]: Drug recovery in kidney of male Sprague-Dawley rat at 4.5 mg/kg, po administered as C14-lableled compound and assessed as radioactivity and measured at 6 hrs. Conditions: in vivo. It counts as ADME, organism-based.
Series [12] is described as follows: Drug recovery in ileum of male Sprague-Dawley rat at 4.5 mg/kg, po administered as C14-lableled compound and assessed as radioactivity and measured at 6 hrs. Conditions: in vivo. It counts as ADME, organism-based.
Series [13] is described as follows: Drug recovery in pancreas of male Sprague-Dawley rat at 4.5 mg/kg, po administered as C14-lableled compound and assessed as radioactivity and measured at 1 hr. It counts as ADME, organism-based. Conditions: in vivo.
A short description of series [14]: Half-life in male C57BL/6 mouse at 2 mg/kg, iv measured by LC-MS/MS analysis. Conditions: in vivo. It counts as ADME, organism-based.
Series [15] can be described thus: Drug recovery in brain of male Sprague-Dawley rat at 4.5 mg/kg, po administered as C14-lableled compound and assessed as radioactivity and measured at 24 hrs. It counts as ADME, organism-based. Conditions: in vivo, BLD = below limit of detection.
A short description of series [16]: Drug metabolism in plasma of Sprague-Dawley rat assessed as production of toxic metabolites at 4.5 mg/kg, po administered as C14-lableled compound with single dose. It counts as ADME, organism-based. Conditions: in vivo.
Series [17] can be described thus: Drug recovery in pancreas of male Sprague-Dawley rat at 4.5 mg/kg, po administered as C14-lableled compound and assessed as radioactivity and measured at 24 hrs. It counts as ADME, organism-based. Conditions: in vivo.
Series [18] deals with Mus musculus. Description: Anti-NASH activity in western style diet-induced nonalcoholic steatohepatitis model of male C57BL/6 mouse assessed as reduction in NASH activity score (NAS) at 1 mg/kg, po administered once daily from week 32 to 44. It counts as functional, organism-based.

Molecules are shown by their SMILES. pEC50: −log10 of the molar value. Calls of active or inactive are those of the source.

As for `O=C(O)c1ccc2c(c1)Oc1ccc(OCc3c(-c4c(Cl)cccc4Cl)noc3C3CC3)nc1C1(CC1)C2`, the outcome in the series with Mus musculus [1], with Mus musculus [5] and in the series with Mus musculus [18] was Active. Besides, the Activity in series [2] was 29%; in [4], “Non-Toxic”; in series [9], “Non-Toxic”. Besides, the results for the half-life in [3], in series [8] and in [14] were 16.8 min, 178 min and 28.2 min, respectively. The pEC50 at Estrogen receptor was under 5.00. In addition, in [6], the Ratio is on record as 0.56. The Drug recovery result in series [7] was “Bld”; in series [11] it was 67.8 ngequiv/g; in series [12], 5620 ngequiv/g; in [13] it was 229 ngequiv/g; in series [15] it was “Bld”; in series [17], 206 ngequiv/g. Moreover, the fold change (FC) in series [10] stood at 2. The Drug metabolism entry in [16] is “Metabolite_Notdetected”.

The half-life is the time needed for the level to fall by half in the phase considered. Higher therefore signals slow decline. What is called pEC50 is −log10 of the EC50, conventionally taken in molar units.

Source of the values: ChEMBL document CHEMBL5154690, “Discovery of a tricyclic farnesoid X receptor agonist HEC96719, a clinical candidate for treatment of non-alcoholic steatohepatitis” (Eur J Med Chem, 2022).
